The text below walks through data of patent US11679097B2, “Combination product containing limonoid compound and biguanide compound” (ZHEJIANG YANGSHENGTANG INSTITUTE OF NATURAL MEDICATION CO., …, priority 2017, dated 2023).

Common to all, as to assay type: in vivo
Assay [1] concerns db/db mice. The experiment in a line: Blood glucose and leptin in mouse model of type II diabetes (Example 2). Conditions: single administration 0.04 g/kg per day by gavage, two weeks; for Leptin: serum, Elisa; for Blood glucose value: 1 h after last administration. The text has this:
Effects of a Limonoid Compound, Metformin or a Combination Thereof on Blood Glucose and Leptin in a Mouse Model of Type II Diabetes In the present example, db/db mice (line name BKS.Cg-Dock7^m+/+ Lepr^db/Nju) were used to perform hypoglycemic efficacy evaluation test of animals (blood glucose level and leptin). […] Conditions for experimental feeding: as type II diabetes model mice, 6-week-old SPF-grade db/db mice were purchased from the Nanjing Model Biology Institute, and subjected to experimental feeding after 7 days of preliminary feeding. […] The experimental feed was mouse growth-stable feed (GB […]), and the daily feeding and management of the animals were under the responsibility of the animal security department, which provided the animals with sufficient padding and fresh drinking water daily. Experimental grouping: male db/db mice (20±2 g) were selected, and 18 male mice in each group were tested. […] Gavage doses: obacunone at a dose of 0.04 g/kg was gavaged per day for the obacunone group, isoobacunoic acid at a dose of 0.04 g/kg was gavaged per day for the isoobacunoic acid group, obacunone 17-β-D-glucopynoside at a dose of 0.04 g/kg was gavaged per day for the obacunone 17-β-D-glucopynoside group, metformin at a dose of 0.04 g/kg was gavaged per day for the metformin group, obacunone at a dose of 0.02 g/kg and metformin at a dose of 0.02 g/kg were simultaneously gavaged per day for the obacunone/metformin combination group, isoobacunoic acid at a dose of 0.02 g/kg and metformin at a dose of 0.02 g/kg were simultaneously gavaged per day for the isoobacunoic acid/metformin combination group, obacunone 17-β-D-glucopynoside at a dose of 0.02 g/kg and metformin at a dose of 0.02 g/kg were simultaneously gavaged per day for the obacunone 17-β-D-glucopynoside/metformin combination group, the gavage volume was 10 mL/kg, and the normal group and the model group were administrated with 10 mL/kg of distilled water. […] The data were expressed as mean and standard deviation. The data before and after were analyzed by t-test, and P<0.05 was considered statistically significant.

Another assay relates to STZ mice. Put plainly: Blood glucose in mouse pancreatic islet β-cell injury model (Example 1). Conditions: STZ ICR mice; single administration 0.02 g/kg per day by gavage, two weeks; 1 h after last administration. The source says: Effects of a Limonoid Compound, Metformin or a Combination Thereof on Blood Glucose in a Mouse Pancreatic Islet β-Cell Injury Model In this example, a mouse pancreatic islet β-cell injury model was established by modeling ICR mice with streptozotocin (STZ) (referred to the prior art literature: Li Nan et al., Protective effect of pine pollen on kidney damage in diabetic nephropathy mice, Science and Technology Review, 2014, 32 (4/5): 95-99), and used to complete the evaluation of hypoglycemic effect in animals (this model could simulate pancreatic islet β-cell damage state of type I and type II diabetics). […] Conditions of experimental feeding: ICR mice (20±2 g), aged 6 weeks, purchased from Zhejiang Academy of Medical Sciences, and subjected to experimental feeding after 7 days of preliminary feeding. […] The experimental feed was mouse growth-stable feed (GB […]), and the daily feeding and management of the animals were under the responsibility of the animal security department, which provided the animals with sufficient padding and fresh drinking water daily. Experimental grouping: 15 male mice were randomly selected as the normal control group. […] Gavage doses: the gavage dose was 0.02 g/kg per day for the limonin group, the gavage dose was 0.02 g/kg per day for the isolimonic acid group, the gavage dose was 0.02 g/kg per day for the limonin 17-β-D-glucopyranoside group, the gavage dose of metformin was 0.02 g/kg per day for the metformin group, limonin at a dose of 0.01 g/kg and metformin at a dose of 0.01 g/kg were simultaneously gavaged per day for the limonin/metformin combination group, isolimonic acid at a dose of 0.01 g/kg and metformin at a dose of 0.01 g/kg were simultaneously gavaged per day for the isolimonic acid/metformin combination group, limonin 17-β-D-glucopyranoside at a dose of 0.01 g/kg and metformin at a dose of 0.01 g/kg were simultaneously gavaged per day for the limonin 17-β-D-glucopyranoside/metformin combination group, isolimonic acid 17-β-D-glucopyranoside at a dose of 0.01 g/kg and metformin at a dose of 0.01 g/kg were simultaneously gavaged per day for the isolimonic acid 17-β-D-glucopyranoside/metformin combination group, the gavage volume was 10 mL/kg, and the normal group and the model group were administrated with 10 mL/kg of distilled water. […] SPSS 16.0 software was used for statistical analysis. The data were expressed as mean and standard deviation. The data before and after were analyzed by t-test, and P<0.05 was considered statistically significant.

In assay [2] the test system is db/db mice. Put plainly: Blood glucose and insulin in mouse model of type II diabetes (Example 4). To be noted: single administration 0.2 g/kg per day by gavage, two weeks; for Insulin: serum, Elisa. The source says: Effects of a Limonoid Compound, Metformin or a Combination Thereof on Blood Glucose and Insulin in a Mouse Model of Type II Diabetes
In the present embodiment, the limonoid compound selected nomilin, deacetylnomilin, nomilin acid, deactylnomilin 17-β-D-glucopyranoside, and a nomilin single administration group, deacetylnomilin single administration group, nomilin acid single administered group, deactylnomilin 17-β-D-glucopyranoside single administration group, and combination thereof with metformin administration groups were set, respectively.
Conditions for experimental feeding: as type II diabetes model mice, 6-week-old SPF-grade db/db mice were purchased from the Nanjing Model Biology Institute, and subjected to experimental feeding after 7 days of preliminary feeding. It should be noted that the conditions for raising the mice were as follows: the temperature was 23±1° C., the humidity was 55±10%, the lights were turned on between 7 am and 7 pm (the lights were turned off at other time), and the mice were allowed to access to water and feed freely. The experimental feed was mouse growth-stable feed (GB M2118), and the daily feeding and management of the animals were under the responsibility of the animal security department, which provided the animals with sufficient padding and fresh drinking water daily.
Experimental grouping: male db/db mice (20±2 g) were selected, 18 male mice in each group were tested, and drinking bottles were sterilized weekly. The experimental groups included the normal control group (db/m, n=18), the model group (db/db, n=18), the nomilin group (db/db, n=18), the deacetylnomilin group (db/db, n=18), the nomilin acid group (db/db, n=18), the deactylnomilin 17-β-D-glucopyranoside group (db/db, n=18), the metformin group (db/db, n=18), the nomilin/metformin combination group (db/db, n=18), the deacetylnomilin/metformin combination group (db/db, n=18), the nomilin acid/metformin combination group (db/db, n=18), the deactylnomilin 17-β-D-glucopyranoside/combination group (db/db, n=18).
Gavage doses: nomilin at a dose of 0.2 g/kg was gavaged per day for the nomilin group, deacetylnomilin at a dose of 0.2 g/kg was gavaged per day for the deacetylnomilin group, nomilin acid at a dose of 0.2 g/kg was gavaged per day for the nomilin acid group, deacetylnomilin […] at a dose of 0.2 g/kg was gavaged per day for the deactylnomilin glucopyranoside group, metformin at a dose of 0.2 g/kg was gavaged per day for the metformin group, nomilin at a dose of 0.1 g/kg and metformin at a dose of 0.1 g/kg were simultaneously gavaged per day for the nomilin/metformin combination group, nomilin acid at a dose of 0.1 g/kg and metformin at a dose of 0.1 g/kg were simultaneously gavaged per day for the nomilin acid/metformin combination group, deacetylnomilin at a dose of 0.1 g/kg and metformin at a dose of 0.1 g/kg were simultaneously gavaged per day for the deacetylnomilin/metformin combination group, deactylnomilin 17-β-D-glucopyranoside at a dose of 0.1 g/kg and metformin at a dose of 0.1 g/kg were simultaneously gavaged per day for the deactylnomilin 17-β-D-glucopyranoside/metformin combination group, the gavage volume was 10 mL/kg, and the normal group and the model group were administrated with 10 mL/kg of distilled water. Two weeks later, the blood glucose values were measured by tail trimming method (Johnson's blood glucose meter) 1 h after the last administration, and serum insulin levels were measured with blood collected from orbital cavity by enzyme-linked immunosorbent assay (Elisa), and the average of each group was obtained. SPSS 16.0 software was used for statistical analysis. The data were expressed as mean and standard deviation. The data before and after were analyzed by t-test, and P<0.05 was considered statistically significant.

Another assay concerns ICR mice. The experiment in a line: Body weight, triglycerides and total cholesterol in obesity mouse model (Example 6). Conditions: high-fat feed ICR mice, single administration 0.1 g/kg per day by gavage, two weeks. The text has this: Effects of a Limonoid Compound, Metformin or a Combination Thereof on Body Weight, Triglycerides, and Total Cholesterol in an Obesity Mouse Model
In this example, ICR mice were used to complete the experiment for evaluation of lipid lowering and weight loss in animals (body weight, serum cholesterol, and serum triglycerides).
In this example, the limonoid compound was nomilin, and a metformin single administration group, nomilin single administration group, and metformin/nomilin combination administration groups (dose A and B groups) were set, respectively.
Conditions of experimental feeding: ICR mice, purchased from the Animal Center of Zhejiang Academy of Medical Sciences, half male and half female, body weight (20±2 g), fed with basic feed provided by the Animal Center of Zhejiang Medical Academy. It should be noted that the conditions for raising the mice were as follows: the temperature was 23±1° C., the humidity was 55±10%, the lights were turned on between 7 am and 7 pm (the lights were turned off at other time), and the mice were allowed to access to water and feed freely. The daily feeding and management of the animals were under the responsibility of the animal security department, which provided the animals with sufficient padding and fresh drinking water daily.
The ICR mice were randomly divided into the normal group and the high-fat feed group, according to body weight. The normal group was fed with ordinary feed from the beginning to the end of the experiment.
Gavage dose: nomilin at a dose of 0.1 g/kg was gavaged per day for the nomilin group, metformin at a dose of 0.1 g/kg was gavaged per day for the metformin group, nomilin at a dose of 0.05 g/kg and metformin at a dose of 0.05 g/kg were simultaneously gavaged per day for the combination dose group A, nomilin at a dose of 0.1 g/kg and metformin at a dose of 0.1 g/kg were simultaneously gavaged per day for the combination dose group B, the gavage volume was 10 mL/kg, and the normal group and the model group were administrated with 10 mL/kg of distilled water. Two weeks later, the mice were weighed, blood sampled from orbital cavity, measured to determine serum total cholesterol and triglyceride levels, and the average values of each group were obtained. SPSS 16.0 software was used for statistical analysis. The data were expressed as mean and standard deviation. The data before and after were analyzed by t-test, and P<0.05 was considered statistically significant.

As to `CC1(C)O[C@@H](CC(=O)O)[C@]2(C)[C@H]3CC[C@@]4(C)[C@H](c5ccoc5)OC(=O)[C@H]5O[C@]54[C@]3(C)C(=O)C[C@@H]12` [Isoobacunoic acid, isoobacunoic acid], in the assay on db/db mice [1], the Leptin is 27.68 ± 3.25 pg/mL and the Blood glucose value worked out at 14.66 ± 3.1 mmol/L.
As for `CC1(C)O[C@H]2CC(=O)OC[C@]23[C@H]2CC[C@@](C)([C@@H](O[C@@H]4O[C@H](CO)[C@@H](O)[C@H](O)[C@H]4O)c4ccoc4)[C@@]4(O[C@@H]4C(=O)O)[C@]2(C)C(=O)C[C@@H]13` [Limonin 17-β-D-glucopyranoside, limonin 17-β-D-glucopyranoside], the Blood glucose value with STZ mice was found to be 18.9 ± 2.2 mmol/L.
On to `CC1(C)O[C@H]2CC(=O)OC[C@]23[C@H]2CC[C@@]4(C)[C@H](c5ccoc5)OC(=O)[C@H]5O[C@]54[C@]2(C)C(=O)C[C@@H]13` [Limonin, limonin], for which the Blood glucose value in the assay on STZ mice is listed as 19.5 ± 1.8 mmol/L.
Consider `CC(=O)O[C@H]1CC(=O)OC(C)(C)[C@@H]2CC(=O)[C@]3(C)[C@H](CC[C@@]4(C)[C@H](c5ccoc5)OC(=O)[C@H]5O[C@]543)[C@@]12C` [Nomilin, nomilin], for which, in the assay on db/db mice [2], the Insulin came to 8.82 ± 3.42 pg/mL. Besides, the “Body weight gaining rate” value in the assay on ICR mice was determined as 6.17%. Besides, in the assay with ICR mice (serum), the Total cholesterol came out at 3.09 ± 0.16 mmol/L and the Triglycerides is listed as 1.08 ± 0.33 mmol/L.
As to `CC1(C)OC(=O)C=C[C@]2(C)[C@H]3CC[C@@]4(C)[C@H](c5ccoc5)OC(=O)[C@H]5O[C@]54[C@]3(C)C(=O)C[C@@H]12` [Obacunone, obacunone], in the assay on db/db mice [1], the Leptin came to 25.99 ± 3.92 pg/mL and the Blood glucose value was found to be 12.71 ± 2.8 mmol/L.
Take `CC1(C)OC(=O)C[C@H](O)[C@]2(C)[C@H]3CC[C@@]4(C)[C@H](c5ccoc5)OC(=O)[C@H]5O[C@]54[C@]3(C)C(=O)C[C@@H]12` [deacetylnomilin]: the Insulin in the assay with db/db mice [2] is 8.59 ± 2.61 pg/mL.
As for isolimonic acid, the Blood glucose value in the assay on STZ mice is 18.2 ± 3.1 mmol/L.
On the same count and under the same terms, to isolimonic acid 17-β-D-glucopyranoside belongs 17.9 ± 2.8 mmol/L.
Take nomilin acid: the Blood glucose value in the assay on db/db mice [2] (1 h after last administration) is 11.0 ± 4.1 mmol/L.
As for obacunone 17-β-D-glucopynoside, in the assay with db/db mice [1], the Leptin came to 28.55 ± 4.00 pg/mL and the Blood glucose value is given as 13.67 ± 2.9 mmol/L.
